Source: patent US7258872B1, “Chromone enteric release formulation” (Thornton & Ross Limited, priority 1998, dated 2007)

Legend:
[1] = cited from earlier work
[2] = Solubility of sodium cromoglycate in water; assay type: physicochemical
Excerpt: Water may be used without additional binder or surfactant.

B lymphocytes = details: cited from earlier work

O=C(O)c1cc(=O)c2c(OCC(O)COc3cccc4oc(C(=O)O)cc(=O)c34)cccc2o1 [sodium cromoglycate]
solubility in acid ([1]; acid medium / gastric fluid): insoluble in an acid medium | lipid solubility ([1]; model assumption): lipid insoluble | water solubility ([1]; model assumption): water soluble | freely soluble up to [2]: up to 5% | soluble with difficulty up to [2]: up to 10% | effect on IgE synthesis by B lymphocytes (B lymphocytes): reduce the ability of IgE-producing cells, the B lymphocytes, to synthesise IgE antibody
